21 compounds from patent publication US9802901B2, “Antibacterial 2H-indazole derivatives” (priority 2013, dated 2017) can be followed below.

Common to all, as to assay: Bacterial growth minimal inhibitory concentration (broth microdilution, CLSI M7-A7)
For orientation: Dilution methods test growth across graded concentrations, often in twofold steps.

One test relates to E. coli ATCC25922. The format is cell-based, Escherichia coli. To be noted: Escherichia coli, ATCC25922; cation-adjusted Mueller-Hinton Broth, microdilution; quinolone-sensitive strain; read-out: MIC for E. coli ATCC25922. The method, then: (§1) Minimal Inhibitory Concentrations (MICs; mg/L) were determined in cation-adjusted Mueller-Hinton Broth by a microdilution method following the description given in “Methods for Dilution Antimicrobial Susceptibility Tests for Bacteria that Grow Aerobically”, Approved standard, 7th ed., Clinical and Laboratory Standards Institute (CLSI) Document M7-A7, Wayne, Pa., USA (2006).
(§2) All Example compounds, except the compound of Example 62, were tested against several Gram-positive and Gram-negative bacteria. […] K. pneumoniae A-651 and Acinetobacter baumannii T6474 are multiply-resistant strains (in particular quinolone-resistant), while E. coli ATCC25922 and P. aeruginosa ATCC27853 are quinolone-sensitive strains.

The subject of the next test is P. aeruginosa ATCC27853. Type of test: cell-based, Pseudomonas aeruginosa. To be noted: Pseudomonas aeruginosa, ATCC27853; cation-adjusted Mueller-Hinton Broth, microdilution; quinolone-sensitive strain; read-out: MIC for P. aeruginosa ATCC27853. As to the method: as §1, §2
For test [1], the system named is Acinetobacter baumannii T6474. The format is cell-based. To be noted: Acinetobacter baumannii, T6474; cation-adjusted Mueller-Hinton Broth, microdilution; multiply-resistant (quinolone-resistant) strain; read-out: MIC for A. Baumannii T6474. As to the method:
as §1, §2

The subject of another test is K. pneumoniae A-651. The format is cell-based, Klebsiella pneumoniae. To be noted: Klebsiella pneumoniae, A651; cation-adjusted Mueller-Hinton Broth, microdilution; multiply-resistant (quinolone-resistant) strain; read-out: MIC for K. Pneumoniae A-651. As to the method: as §1, §2

Converted amounts (≈) assume the structure as drawn.

What is called MIC is the least concentration at which growth counts as inhibited. Take `CC(CCn1cc2cc(-c3ccc(OCCCN4CCOCC4)cc3)ccc2n1)(C(=O)NO)S(C)(=O)=O.O=CO` (racemic) [RE1, (RS)—N-hydroxy-2-methylsulfonyl-2-methyl-4-{5-[4-(3-morpholin-4-yl-propoxy)-phenyl]-indazol-2-yl}-butanamide formic acid salt]: the MIC came out at 0.5 µg/mL in the test with E. coli ATCC25922, 4 µg/mL in the test on P. aeruginosa ATCC27853, 4 µg/mL in test [1] and 1 µg/mL in the test with K. pneumoniae A-651.

With `CC(CCn1cc2cc(-c3ccc(OCCN4CCOCC4)cc3)ccc2n1)(C(=O)NO)S(C)(=O)=O.O=CO` (racemic) [RE2, (RS)—N-hydroxy-2-methylsulfonyl-2-methyl-4-{5-[4-(2-morpholin-4-yl-ethoxy)-phenyl]-indazol-2-yl}-butanamide formic acid salt], the MIC in the test with E. coli ATCC25922 was determined as 1 µg/mL; with P. aeruginosa ATCC27853 it was 4 µg/mL; in test [1], 4 µg/mL; with K. pneumoniae A-651, 1 µg/mL.

With `CC(CCn1cc2cc(-c3ccc(OCCN4CCOCC4)cc3F)ccc2n1)(C(=O)NO)S(C)(=O)=O.O=CO` (racemic) [RE3, (RS)-4-{5-[2-fluoro-4-(2-morpholin-4-yl-ethoxy)-phenyl]-indazol-2-yl}-N-hydroxy-2-methylsulfonyl-2-methyl-butanamide formic acid salt], the MIC in the test on E. coli ATCC25922 was determined as 1 µg/mL; in the test with P. aeruginosa ATCC27853, 8 µg/mL; in test [1] it was 8 µg/mL; in the test on K. pneumoniae A-651 it was 2 µg/mL.

Turning to `CC#CCOc1ccc2nn(CCC(C)(C(=O)NO)S(C)(=O)=O)cc2c1` (racemic) [RE4, (RS)-4-(5-but-2-ynyloxy-indazol-2-yl)-N-hydroxy-2-methylsulfonyl-2-methyl-butanamide], the MIC in the test with E. coli ATCC25922 came out at 4 µg/mL (≈ 10.5 µM); in the test on P. aeruginosa ATCC27853, 8 µg/mL (≈ 21.1 µM); in test [1] it was 32 µg/mL (≈ 84.3 µM); in the test with K. pneumoniae A-651, 8 µg/mL (≈ 21.1 µM).

Take `CC(CCn1cc2cc(CCc3ccccc3)ccc2n1)(C(=O)NO)S(C)(=O)=O` (racemic) [RE5, (RS)—N-hydroxy-2-methylsulfonyl-2-methyl-4-(5-phenethyl-indazol-2-yl)-butanamide]: the MIC with E. coli ATCC25922 worked out at 0.5 µg/mL (≈ 1.2 µM); with P. aeruginosa ATCC27853, 8 µg/mL (≈ 19.3 µM); in test [1], 0.25 µg/mL (≈ 0.602 µM); with K. pneumoniae A-651, 2 µg/mL (≈ 4.81 µM).

Turning to `CC(CCn1cc2cc(-c3ccc(-c4ncco4)cc3)ccc2n1)(C(=O)NO)S(C)(=O)=O.O=CO` (racemic) [RE6, (RS)—N-hydroxy-2-methylsulfonyl-2-methyl-4-[5-(4-oxazol-2-yl-phenyl)-indazol-2-yl]-butanamide formic acid salt], the MIC was 0.125 µg/mL in the test on E. coli ATCC25922, 8 µg/mL with P. aeruginosa ATCC27853, 4 µg/mL in test [1] and 0.25 µg/mL in the test with K. pneumoniae A-651.

As to `COc1cccc(-c2ccc3nn(CCC(C)(C(=O)NO)S(C)(=O)=O)cc3c2)c1F` (racemic) [RE7, (RS)-4-(5-(2-fluoro-3-methoxyphenyl)-2H-indazol-2-yl)-N-hydroxy-2-methyl-2-(methylsulfonyl)butanamide], the minimal inhibitory concentration (MIC) with E. coli ATCC25922 turned out to be 0.125 µg/mL (≈ 0.287 µM); with P. aeruginosa ATCC27853, 2 µg/mL (≈ 4.59 µM); in test [1] it was 0.5 µg/mL (≈ 1.15 µM); in the test on K. pneumoniae A-651 it was 0.125 µg/mL (≈ 0.287 µM).

On to `C[C@@](CCn1cc2c(F)c(C#CC#C[C@H]3C[C@@H]3CO)ccc2n1)(C(=O)NO)S(C)(=O)=O` (relative stereo) [Example 18, (R)-4-{4-fluoro-5-[4-((1S*,2S*)-2-hydroxymethyl-cyclopropyl)-buta-1,3-diynyl]-indazol-2-yl}-N-hydroxy-2-methylsulfonyl-2-methyl-butanamide], for which the MIC in the test with E. coli ATCC25922 stood at 0.125 µg/mL (≈ 0.279 µM); with P. aeruginosa ATCC27853 it was 0.5 µg/mL (≈ 1.12 µM); in test [1], 4 µg/mL (≈ 8.94 µM); in the test on K. pneumoniae A-651, 0.125 µg/mL (≈ 0.279 µM).

Turning to `C[C@@](CCn1cc2cc(-c3ccc(C#C[C@H]4C[C@@H]4CO)cc3)ccc2n1)(C(=O)NO)S(C)(=O)=O` (relative stereo) [Example 60, (R)—N-hydroxy-4-(5-(4-(((1S*,2S*)-2-(hydroxymethyl)cyclopropyl)ethynyl)phenyl)-2H-indazol-2-yl)-2-methyl-2-(methylsulfonyl)butanamide], the MIC is at most 0.063 µg/mL with E. coli ATCC25922, 0.5 µg/mL (≈ 1.04 µM) in the test on P. aeruginosa ATCC27853, at most 0.063 µg/mL in test [1] and 0.125 µg/mL (≈ 0.26 µM) with K. pneumoniae A-651.

For `C[C@@](CCn1cc2cc(C#CC#C[C@@H]3CC[C@H](N)CO3)ccc2n1)(C(=O)NO)S(C)(=O)=O` (relative stereo) [Example 61, (R)-4-(5-(((2S*,5S*)-5-aminotetrahydro-2H-pyran-2-yl)buta-1,3-diyn-1-yl)-2H-indazol-2-yl)-N-hydroxy-2-methyl-2-(methylsulfonyl)butanamide], the MIC is 2 µg/mL (≈ 4.36 µM) in the test on E. coli ATCC25922, 1 µg/mL (≈ 2.18 µM) in the test with P. aeruginosa ATCC27853, over 8 µg/mL in test [1] and 4 µg/mL (≈ 8.72 µM) in the test with K. pneumoniae A-651.

As for `COc1ccc(-c2ccc3nn(CC[C@](C)(C(=O)NO)S(C)(=O)=O)cc3c2)c(F)c1` [Example 1, (R)-4-[5-(2-fluoro-4-methoxy-phenyl)-indazol-2-yl]-N-hydroxy-2-methylsulfonyl-2-methyl-butanamide], the MIC was found to be 0.063 µg/mL (≈ 0.145 µM) in the test with E. coli ATCC25922, 2 µg/mL (≈ 4.59 µM) with P. aeruginosa ATCC27853, 1 µg/mL (≈ 2.3 µM) in test [1] and 0.063 µg/mL (≈ 0.145 µM) with K. pneumoniae A-651.

With `COc1ccc(-c2ccc3nn(CC[C@](C)(C(=O)NO)S(C)(=O)=O)cc3c2)cc1` [Example 2, (R)—N-hydroxy-2-methylsulfonyl-4-[5-(4-methoxy-phenyl)-indazol-2-yl]-2-methyl-butanamide], the MIC was found to be 0.125 µg/mL (≈ 0.299 µM) with E. coli ATCC25922, 4 µg/mL (≈ 9.58 µM) in the test on P. aeruginosa ATCC27853, 1 µg/mL (≈ 2.4 µM) in test [1] and 0.5 µg/mL (≈ 1.2 µM) with K. pneumoniae A-651.

For the compound `COc1ccc(-c2cc3cn(CC[C@](C)(C(=O)NO)S(C)(=O)=O)nc3cc2F)cc1` [Example 3, (R)-4-[6-fluoro-5-(4-methoxy-phenyl)-indazol-2-yl]-N-hydroxy-2-methylsulfonyl-2-methyl-butanamide], the MIC in the test with E. coli ATCC25922 turned out to be 0.063 µg/mL (≈ 0.145 µM); in the test on P. aeruginosa ATCC27853, 2 µg/mL (≈ 4.59 µM); in test [1], 0.5 µg/mL (≈ 1.15 µM); in the test on K. pneumoniae A-651, 0.125 µg/mL (≈ 0.287 µM).

Turning to `COc1ccc(-c2ccc3nn(CC[C@](C)(C(=O)NO)S(C)(=O)=O)cc3c2F)cc1` [Example 4, (R)-4-[4-fluoro-5-(4-methoxy-phenyl)-indazol-2-yl]-N-hydroxy-2-methylsulfonyl-2-methyl-butanamide], the MIC is 0.125 µg/mL (≈ 0.287 µM) in the test on E. coli ATCC25922, 4 µg/mL (≈ 9.19 µM) in the test with P. aeruginosa ATCC27853, 2 µg/mL (≈ 4.59 µM) in test [1] and 0.5 µg/mL (≈ 1.15 µM) with K. pneumoniae A-651.

On to `COc1ccc(-c2cc3cn(CC[C@](C)(C(=O)NO)S(C)(=O)=O)nc3cc2F)c(F)c1` [Example 5, (R)-4-[6-fluoro-5-(2-fluoro-4-methoxy-phenyl)-indazol-2-yl]-N-hydroxy-2-methylsulfonyl-2-methyl-butanamide], for which the MIC turned out to be 0.063 µg/mL (≈ 0.139 µM) with E. coli ATCC25922, 4 µg/mL (≈ 8.82 µM) with P. aeruginosa ATCC27853, 2 µg/mL (≈ 4.41 µM) in test [1] and 0.063 µg/mL (≈ 0.139 µM) in the test on K. pneumoniae A-651.

In the case of `COc1ccc(-c2ccc3nn(CC[C@](C)(C(=O)NO)S(C)(=O)=O)cc3c2F)c(F)c1` [Example 6, (R)-4-[4-fluoro-5-(2-fluoro-4-methoxy-phenyl)-indazol-2-yl]-N-hydroxy-2-methylsulfonyl-2-methyl-butanamide], the MIC was found to be 0.125 µg/mL (≈ 0.276 µM) with E. coli ATCC25922, 4 µg/mL (≈ 8.82 µM) with P. aeruginosa ATCC27853, 2 µg/mL (≈ 4.41 µM) in test [1] and 0.5 µg/mL (≈ 1.1 µM) with K. pneumoniae A-651.

As for `C[C@@](CCn1cc2cc(C#Cc3ccc(CN4CCOCC4)cc3)ccc2n1)(C(=O)NO)S(C)(=O)=O.O=CO` [Example 7, (R)—N-hydroxy-2-methylsulfonyl-2-methyl-4-[5-(4-morpholin-4-ylmethyl-phenylethynyl)-indazol-2-yl]-butanamide formate], the MIC was 0.25 µg/mL in the test with E. coli ATCC25922, 2 µg/mL in the test on P. aeruginosa ATCC27853, 0.5 µg/mL in test [1] and 0.125 µg/mL in the test with K. pneumoniae A-651.

For `C[C@@](CCn1cc2cc(-c3ccc(OC(F)(F)F)cc3)ccc2n1)(C(=O)NO)S(C)(=O)=O` [Example 8, (R)—N-hydroxy-2-methylsulfonyl-2-methyl-4-[5-(4-trifluoromethoxy-phenyl)-indazol-2-yl]-butanamide], the minimal inhibitory concentration (MIC) came to 0.25 µg/mL (≈ 0.53 µM) in the test with E. coli ATCC25922, 4 µg/mL (≈ 8.48 µM) with P. aeruginosa ATCC27853, 0.125 µg/mL (≈ 0.265 µM) in test [1] and 0.5 µg/mL (≈ 1.06 µM) with K. pneumoniae A-651.

Consider `CSc1ccc(-c2ccc3nn(CC[C@](C)(C(=O)NO)S(C)(=O)=O)cc3c2)c(F)c1` [Example 9, (R)-4-[5-(2-fluoro-4-methylsulfanyl-phenyl)-indazol-2-yl]-N-hydroxy-2-methylsulfonyl-2-methyl-butanamide], for which the MIC worked out at 0.063 µg/mL (≈ 0.14 µM) in the test with E. coli ATCC25922, 2 µg/mL (≈ 4.43 µM) with P. aeruginosa ATCC27853, 0.25 µg/mL (≈ 0.554 µM) in test [1] and 0.063 µg/mL (≈ 0.14 µM) in the test with K. pneumoniae A-651.

On to `C[C@@](CCn1cc2cc(C#Cc3ccc(C4(N)COC4)cc3)ccc2n1)(C(=O)NO)S(C)(=O)=O.Cc1ccc(S(=O)(=O)O)cc1` [Example 10, (R)-4-{5-[4-(3-amino-oxetan-3-yl)-phenylethynyl]-indazol-2-yl}-N-hydroxy-2-methylsulfonyl-2-methyl-butanamide toluene-4-sulfonate], for which the minimum inhibitory concentration (MIC) was found to be 0.5 µg/mL with E. coli ATCC25922, 2 µg/mL in the test on P. aeruginosa ATCC27853, 2 µg/mL in test [1] and 0.5 µg/mL with K. pneumoniae A-651.

On to `CN(C)c1ccc(-c2ccc3nn(CC[C@](C)(C(=O)NO)S(C)(=O)=O)cc3c2)cc1` [Example 11, (R)-4-[5-(4-dimethylamino-phenyl)-indazol-2-yl]-N-hydroxy-2-methylsulfonyl-2-methyl-butanamide], for which the MIC with E. coli ATCC25922 came out at 0.063 µg/mL (≈ 0.146 µM); in the test with P. aeruginosa ATCC27853, 8 µg/mL (≈ 18.6 µM); in test [1], 2 µg/mL (≈ 4.65 µM); in the test with K. pneumoniae A-651, 0.063 µg/mL (≈ 0.146 µM).
